Laboratory results from article PMC5970223, “Multiplexed profiling of GPCR activities by combining split TEV assays and EXT-based barcoded readouts” (Scientific Reports, 2018).
Structures can show the parent of a compound that is named as a salt. Where two headings read alike, the source gives them in different places. Values belong to the compound of their own block, whether it stands above or below them.

Legend:
ADRA2B = tested on: ADRA2B; parameters: method as in PubChem, Supplementary refs 1, 6, 17; conditions: ref PubChem, Supplementary refs 1, 6, 17; cited from earlier work
HRH1 = conditions: cited from earlier work; for drug effect, IUPHAR: ref IUPHAR, Supplementary refs 2,3, 7, 10
ADRA2C = tested on: ADRA2C; parameters: method as in PubChem, Supplementary refs 1, 17; conditions: ref PubChem, Supplementary refs 1, 17; cited from earlier work
histamine receptor HRH1 = tested on: T1, histamine receptor HRH1; experiment: multiplexed GPCRprofiler assay in U2OS cells; type: cell-based, human; conditions: for drug-induced effect, GPCRprofiler: Supplementary Table S4, HRH1; for antagonistic effect on HRH1: U2OS cells, drug 1 h before agonist-mix (1 µM each)
T1 construct: ORFs of GPCRs were PCR amplified; expressed in transfected cells; host or cells: U2OS
Method: (§1) Two hours after transfection, all cell populations were pooled, mixed, and evenly divided into fractions for plating onto assay dishes (Fig. 2a). The cells were cultured and stimulated under identical conditions for agonist or antagonist assays as initially described for GPCR split TEV assays (Supplementary Fig. S1a,b).
(§2) After cell lysis, RNA from each sample was isolated and converted into cDNA by reverse transcription. […] This permits the mixing of all samples and sequencing of all pooled samples using a single sequencing run (Fig. 2b). The sample barcodes enable tracing experimental conditions, whereas the read counts per EXTs serve as quantitative measurements for the corresponding GPCRs. […] From the normalized data the fold changes of receptor activities were finally calculated.
(§3) Next, we applied the multiplexed GPCRprofiler to measure the effects of GPCR targeting drugs on receptor activity. […] In addition, binding affinities to α-adrenergic receptors and the histamine receptor HRH1 were described for paliperidone using biochemical assays[38]–[40]. […] To address any changes in GPCR activities caused by the selected drugs, receptors were stimulated for 6 h applying two different parameters. First, to monitor agonistic effects, GPCRs were treated with the drugs only (Supplementary Fig. S1a). Second, to measure antagonistic effects, GPCRs were treated both with the drugs and the corresponding agonist (Supplementary Fig. S1b). This experimental design therefore allows to identify potential antagonistic effects of agonists and vice versa. For a profiling experiment, drugs were applied at increasing concentrations. […] Alternatively, a drug-induced inhibition of agonist-mediated GPCR activation specifies the drug as antagonist.
(§4) Cells were resuspended in culture medium without antibiotics at a density of 1.5 × 10^6 cells/ml (U2OS) or 3 × 10^6 cells/ml (PC12). […] Transfection-mixes were added to cell suspensions and incubated for 2 h at 37 °C without shaking. Suspensions were centrifuged for 5 min at 900 rpm and resuspended in culture medium to remove transfection reagents. All transfection samples were combined within one pool and plated on multiple wells of 6-well plates and incubated for 24 h at 37 °C. Afterwards, cells were starved for 17–18 h and then treated with compounds for 6 h in duplicates. After compound treatment cells were washed with PBS and 500 µl RLT lysis buffer was applied for cell lysis. Lysates were processed for sequencing as described below.
(§5) RNA was additional in solution treated with Turbo DNase (Ambion) for 30 min at 37 °C and repurified over an RNeasy column. First-strand cDNA synthesis was performed with 1 µg total RNA using superscript III reverse transcriptase (Invitrogen) and 120 pmol of a random nanomer primer. […] On order to differentiate different samples 13mer barcodes were introduced between 5′ Ion adapter and target sequence. All processed samples of an experiment were combined within one pool and purified using PCR clean-up kit (Macherey-Nagel).
(§6) Raw sequencing data analyses were done by using BLAST algorithm and in-house developed R scripts.

serotonin receptor HTR1A = tested on: T2, serotonin receptor HTR1A; experiment: multiplexed GPCRprofiler assay in U2OS cells; type: cell-based, human; conditions: multiplexed GPCR assay
T2 construct: ORFs of GPCRs were PCR amplified; HA-Flag signal peptide (N); expressed in transfected cells; host or cells: U2OS
Method: as §1, §2, §3, §4, §5, §6

[1] = tested on: T3, α-adrenergic receptor ADRA2C; experiment: multiplexed GPCRprofiler assay in U2OS cells; type: cell-based, human; conditions: for drug-induced effect, GPCRprofiler: Supplementary Table S4, ADRA2C; for antagonistic effect on ADRA2C: U2OS cells, drug 1 h before agonist-mix (1 µM each)
T3 construct: ORFs of GPCRs were PCR amplified; expressed in transfected cells; host or cells: U2OS
Method: as §1, §2, §3, §4, §5, §6

HTR2A [2] = conditions: GF62 cells; cited from earlier work
HTR2A [3] = conditions: cited from earlier work; for drug effect, PubChem: ref PubChem, Supplementary refs 1, 4–6, 8,9
serotonin receptor HTR2A [4] = target: T4, serotonin receptor HTR2A (Homo sapiens, UniProt P28223); experiment: multiplexed GPCRprofiler assay in U2OS cells; type: cell-based; conditions: for agonistic effect on HTR2A (drug alone): drug only for 6 h, subtle = less than 2-fold change, three consecutive increases
T4 sequence (P28223 81-471 limits assumed): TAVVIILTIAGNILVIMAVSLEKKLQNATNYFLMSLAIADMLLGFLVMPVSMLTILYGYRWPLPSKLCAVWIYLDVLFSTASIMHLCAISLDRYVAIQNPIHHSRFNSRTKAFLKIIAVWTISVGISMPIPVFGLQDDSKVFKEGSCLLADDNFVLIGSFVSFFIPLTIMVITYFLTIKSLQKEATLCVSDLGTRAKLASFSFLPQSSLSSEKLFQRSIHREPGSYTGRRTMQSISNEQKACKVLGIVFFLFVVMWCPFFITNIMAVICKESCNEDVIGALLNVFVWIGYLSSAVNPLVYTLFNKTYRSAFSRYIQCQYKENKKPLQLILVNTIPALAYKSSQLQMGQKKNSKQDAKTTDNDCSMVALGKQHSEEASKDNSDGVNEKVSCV
Method: as §1, §2
(§7) In addition to the stimulation with the single compounds, a compound-mixture (mix) of all agonists was tested. The first set of experiments were carried out in the human osteosarcoma cell line U2OS. We normalized the raw sequencing data to total read numbers of sample codes, followed by averaging reads of internal and external calibrator EXTs as described above (Supplementary Fig. S4).
as §3
Cells were resuspended in culture medium without antibiotics at a density of 1.5 × 10^6 cells/ml (U2OS) or 3 × 10^6 cells/ml (PC12). […] Transfection-mixes were added to cell suspensions and incubated for 2 h at 37 °C without shaking. Suspensions were centrifuged for 5 min at 900 rpm and resuspended in culture medium to remove transfection reagents.

serotonin receptor HTR2A [5] = target: T4, serotonin receptor HTR2A; conditions: PC12 cells
Method: as §1, §2
as §4, with “After compound treatment cells were washed with PBS and 500 µl RLT lysis buffer was applied for cell lysis. Lysates were processed for sequencing as described below.” left out

[6] = tested on: dopamine and the adrenergic receptors; conditions: U2OS cells, agonist 100 pM to 100 µM
Method: as §1, §2, §7, §4
(§8) RNA was additional in solution treated with Turbo DNase (Ambion) for 30 min at 37 °C and repurified over an RNeasy column. […]

serotonin receptor HTR5A = conditions: U2OS cells (not in PC12 cells)
Method: as §1, §2, §7, §4, §8

dopamine receptor DRD2 [7] = target: T5, dopamine receptor DRD2 (Homo sapiens, UniProt P14416); experiment: standard single luciferase GPCR split TEV assay; type: cell-based; conditions: validation (Fig. 4e), read-out: IC50 of DRD2 receptor inhibition
T5 sequence (P14416 1-414 isoform P14416-2): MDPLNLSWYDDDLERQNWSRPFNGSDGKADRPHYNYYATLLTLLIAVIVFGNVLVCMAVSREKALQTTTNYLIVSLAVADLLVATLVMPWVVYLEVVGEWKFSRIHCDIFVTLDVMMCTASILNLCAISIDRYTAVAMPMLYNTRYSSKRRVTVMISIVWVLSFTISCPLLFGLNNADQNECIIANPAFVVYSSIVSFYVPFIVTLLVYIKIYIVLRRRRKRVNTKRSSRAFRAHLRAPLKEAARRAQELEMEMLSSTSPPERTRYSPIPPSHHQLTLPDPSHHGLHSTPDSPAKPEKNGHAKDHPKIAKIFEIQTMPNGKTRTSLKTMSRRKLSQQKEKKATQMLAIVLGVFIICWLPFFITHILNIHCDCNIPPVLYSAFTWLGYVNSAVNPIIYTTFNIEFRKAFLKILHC
Description: (§9) GPCR split TEV assays allow monitoring ligand-dependent GPCR activities using the stimulation-dependent interaction of β-arrestin2 and a candidate GPCR. […] To do this, the NTEV fragment and the artificial transcription factor GAL4-VP16 (GV) were fused to the C-terminal end of a candidate GPCR, separated by a TEV cleavage site (tevS) (Fig. 1a,b). To improve the stability of the interaction between a given GPCR and the arrestin, a short sequence from the C-terminal end of the human arginine vasopressin receptor 2 (AVPR2) (abbreviated V2R) was introduced between a candidate GPCR and NTEV[17],[27]. V2R contains multiple phosphorylation sites for GRKs. These sites provide, when phosphorylated, enhanced binding of β-arrestin.
For luciferase assays cells were plated on 96-well white plates at 4 × 10^4 cells/well (PC12) one day before the experiment. The assays were performed with 6 wells as replicates per condition. […] Plasmids and lipofectamine 2000 transfection reagent (Invitrogen) were diluted in opti-MEM (Gibco) and incubated for 20 min at room temperature. Medium was removed from cells, the transfection-mix was added and the plates incubated for 2 h at 37 °C, followed by the adding of double-volume of culture medium to dilute transfection reagents. […]

DRD2 = conditions: ref PubChem, Supplementary refs 1, 4,5, 12–14; cited from earlier work
HTR2A serotonin receptor = HTR2A serotonin receptor (Homo sapiens, UniProt P28223); experiment: single GPCR split TEV assay, luciferase readout (β-arrestin2 recruitment); type: cell-based; conditions: standard single luciferase GPCR split TEV assay, validation (Fig. 4f); read-out: IC50 of HTR2A receptor inhibition
HTR2A serotonin receptor, sequence (P28223 81-471 limits assumed): as the sequence (P28223 81-471 limits assumed) above
Description: as §9
For these assays, cells were transiently transfected with GPCR split TEV components and reporters, which were allowed to express for 20 h. […] For antagonistic assays, compounds were added 1 h before agonist to ensure proper incubation (Supplementary Fig. S1b). For clarity, varying experimental conditions, such as plate formats, for applied assay formats are summarized in Supplementary Table S3.
For luciferase assays cells were plated on 96-well white plates at 4 × 10^4 cells/well (PC12) one day before the experiment. The assays were performed with 6 wells as replicates per condition. […]

[8] = tested on: T6, α-adrenergic receptor ADRA2B; experiment: multiplexed GPCRprofiler assay in U2OS cells; type: cell-based, human
T6 construct: ORFs of GPCRs were PCR amplified; expressed in transfected cells; host or cells: U2OS (multiplexed assays)
Method: as §1, §2, §3, §4, §5, §6

dopamine receptor DRD2 [9] = target: T5, dopamine receptor DRD2; experiment: multiplexed GPCRprofiler assay in U2OS cells; type: cell-based
[10] = U2OS cells, drug 1 h before agonist-mix (1 µM each)

Structure (SMILES): O=C1CCc2ccc(OCCCCN3CCN(c4cccc(Cl)c4Cl)CC3)cc2N1 [Aripiprazole]
drug effect, PubChem (ADRA2B): Antagonist
drug effect, IUPHAR (HRH1): Antagonist
drug effect, PubChem (HRH1; ref PubChem, Supplementary refs 1, 4–6, 17): Antagonist
drug effect, PubChem (ADRA2C): Antagonist
drug-induced effect, GPCRprofiler (histamine receptor HRH1): Antagonist
antagonistic effect on HRH1 (histamine receptor HRH1): inhibited
partial agonism on HTR1A (serotonin receptor HTR1A): not detected
drug-induced effect, GPCRprofiler [1]: Antagonist
antagonistic effect on ADRA2C [1]: inhibited
effect on HTR2A reported in the literature (HTR2A [2]): weak partial agonistic effect
drug effect, PubChem (HTR2A [3]): Antagonist
agonistic effect on HTR2A (drug alone) (serotonin receptor HTR2A [4]; U2OS cells): concentration-dependent agonistic effect
agonistic effect on HTR2A (drug alone) (serotonin receptor HTR2A [4]; U2OS cells, listed as aripiprazole): subtle agonistic effects

activation of HTR2A by non-cognate agonist (serotonin receptor HTR2A [5]): activation
signals of both receptor subfamilies (dopamine and adrenergic) upon stimulation [6]: elevated signals
activation of HTR5A by non-cognate agonist (serotonin receptor HTR5A): activated by dopamine in U2OS cells only
activation of HTR2A by non-cognate agonist (serotonin receptor HTR2A [4]; U2OS cells): activation
Structure (SMILES): NCCc1ccc(O)c(O)c1 [Dopamine, Dopamine hydrochloride]

IC50 (dopamine receptor DRD2 [7]): 188 nM
IC50 (HTR2A serotonin receptor): 3.65 nM
drug-induced effect, GPCRprofiler (dopamine receptor DRD2 [9]; Supplementary Table S4, DRD2): Antagonist
drug-induced effect, GPCRprofiler (serotonin receptor HTR2A [4]; Supplementary Table S4, HTR2A): Antagonist
Structure (SMILES): Cc1nc2n(c(=O)c1CCN1CCC(c3noc4cc(F)ccc34)CC1)CCCC2O (stereo not shown) [Paliperidone]
drug effect, PubChem (ADRA2B): Antagonist
drug effect, IUPHAR (HRH1): Antagonist
drug effect, PubChem (DRD2): Antagonist
drug-induced effect, GPCRprofiler ([8]; Supplementary Table S4, ADRA2B): Antagonist
antagonistic effect on ADRA2B [8, 10]: dose-dependent inhibition of receptor activity
drug-induced effect, GPCRprofiler (histamine receptor HRH1): Antagonist
antagonistic effect on HRH1 (histamine receptor HRH1): dose-dependent inhibition of receptor activity
drug-induced effect, GPCRprofiler [1]: Antagonist
antagonistic effect on ADRA2C [1]: dose-dependent inhibition of receptor activity
drug effect, IUPHAR (HTR2A [3]; ref IUPHAR, Supplementary refs 2,3, 7, 10,11): Antagonist
drug effect, PubChem (HTR2A [3]): Antagonist
antagonistic effect on DRD2 (dopamine receptor DRD2 [9]; [10]): dose-dependent inhibition of receptor activity
antagonistic effect on HTR2A (serotonin receptor HTR2A [4]; [10]): dose-dependent inhibition of receptor activity
